Experimental data: the supplement of paper PMC10307832

Columns and labels:
Test in all cases: relative viability (nuclei count vs DMSO), 5 days (fraction); higher = more cells survive
NCI-H1355 = tested on: NCI-H1355
Procedure, shortened: (§1)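 Lung cancer cell lines were pin-tool dosed in 1536-well plates on the day after seeding, with either a lone drug or a fixed anchor-drug dose plus five library-drug doses (not always all listed) in √10 steps. Nuclei were counted on 4× images after 5 days. Relative viability is the ratio of treated-well to vehicle-well nuclei counts, with each value a median of duplicate plates.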

NCI-H1703 = tested on: NCI-H1703
Procedure, shortened: as §1

NCI-H520 = tested on: NCI-H520
Procedure, shortened: as §1

LC-2-ad = tested on: LC-2-ad
Procedure, shortened: as §1

NCI-H1299 = tested on: NCI-H1299
Procedure, shortened: as §1

EBC-1 = tested on: EBC-1
Procedure, shortened: as §1

LCLC-97TM1 = tested on: LCLC-97TM1
Procedure, shortened: as §1

NCI-H23 = tested on: NCI-H23
Procedure, shortened: as §1

IA-LM = tested on: IA-LM
Procedure, shortened: as §1

NCI-H2347 = tested on: NCI-H2347
Procedure, shortened: as §1

A549 = tested on: A549
Procedure, shortened: as §1

PC-3 [JPC-3] = tested on: PC-3 [JPC-3]
Procedure, shortened: as §1

Calu-6 = tested on: Calu-6
Procedure, shortened: as §1

COCC1(CO)C(=O)C2CCN1CC2 (centres undefined) [PRIMA-1MET] + CC1(C)CCC(c2ccc(Cl)cc2)=C(CN2CCN(c3ccc(C(=O)NS(=O)(=O)c4ccc(N[C@H](CCN5CCOCC5)CSc5ccccc5)c(S(=O)(=O)C(F)(F)F)c4)cc3)CC2)C1 [Navitoclax] (partner 0.5 µM)
relative viability (NCI-H1355; first compound 0.2 µM): 1.08 | relative viability (NCI-H1355; first compound 0.6325 µM): 0.791 | relative viability (NCI-H1355; first compound 2 µM): 0.804 | relative viability (NCI-H1355; first compound 6.325 µM): 0.947 | relative viability (NCI-H1355; first compound 20 µM): 0.944 | relative viability (NCI-H1703; first compound 0.2 µM): 1.43 | relative viability (NCI-H1703; first compound 0.6325 µM): 0.891 | relative viability (NCI-H1703; first compound 2 µM): 1.18 | relative viability (NCI-H1703; first compound 6.325 µM): 1.21 | relative viability (NCI-H1703; first compound 20 µM): 0.0405 | relative viability (NCI-H520; first compound 0.2 µM): 1.25 | relative viability (NCI-H520; first compound 0.6325 µM): 1.06 | relative viability (NCI-H520; first compound 6.325 µM): 1.17 | relative viability (NCI-H520; first compound 20 µM): 0.131 | relative viability (LC-2-ad; first compound 0.2 µM): 0.483 | relative viability (LC-2-ad; first compound 0.6325 µM): 0.375 | relative viability (LC-2-ad; first compound 2 µM): 0.511 | relative viability (LC-2-ad; first compound 6.325 µM): 0.39 | relative viability (LC-2-ad; first compound 20 µM): 0.217 | relative viability (NCI-H1299; first compound 0.2 µM): 1.14 | relative viability (NCI-H1299; first compound 0.6325 µM): 1.04 | relative viability (NCI-H1299; first compound 2 µM): 1.05 | relative viability (NCI-H1299; first compound 6.325 µM): 1.11 | relative viability (NCI-H1299; first compound 20 µM): 1.04 | relative viability (EBC-1; first compound 0.2 µM): 0.379 | relative viability (EBC-1; first compound 0.6325 µM): 0.37 | relative viability (EBC-1; first compound 2 µM): 0.427 | relative viability (EBC-1; first compound 6.325 µM): 0.416 | relative viability (EBC-1; first compound 20 µM): 0.151 | relative viability (LCLC-97TM1; first compound 0.2 µM): 0.605 | relative viability (LCLC-97TM1; first compound 2 µM): 0.644 | relative viability (LCLC-97TM1; first compound 6.325 µM): 0.531 | relative viability (LCLC-97TM1; first compound 20 µM): 0.0875 | relative viability (NCI-H23; first compound 0.2 µM): 1.03 | relative viability (NCI-H23; first compound 0.6325 µM): 0.668 | relative viability (NCI-H23; first compound 2 µM): 0.701 | relative viability (NCI-H23; first compound 6.325 µM): 0.811 | relative viability (NCI-H23; first compound 20 µM): 0.119 | relative viability (IA-LM; first compound 0.2 µM): 0.657 | relative viability (IA-LM; first compound 0.6325 µM): 0.769 | relative viability (IA-LM; first compound 2 µM): 0.714 | relative viability (IA-LM; first compound 6.325 µM): 0.949 | relative viability (IA-LM; first compound 20 µM): 0.806 | relative viability (NCI-H2347; first compound 0.2 µM): 0.887 | relative viability (NCI-H2347; first compound 0.6325 µM): 0.708 | relative viability (NCI-H2347; first compound 2 µM): 0.519 | relative viability (NCI-H2347; first compound 6.325 µM): 0.872 | relative viability (NCI-H2347; first compound 20 µM): 0.754 | relative viability (A549; first compound 0.2 µM): 1.35 | relative viability (A549; first compound 0.6325 µM): 1.09 | relative viability (A549; first compound 2 µM): 1.23 | relative viability (A549; first compound 6.325 µM): 1.16 | relative viability (A549; first compound 20 µM): 1.08 | relative viability (PC-3 [JPC-3]; first compound 0.2 µM): 0.853 | relative viability (PC-3 [JPC-3]; first compound 0.6325 µM): 0.572 | relative viability (PC-3 [JPC-3]; first compound 2 µM): 0.816 | relative viability (PC-3 [JPC-3]; first compound 6.325 µM): 0.794 | relative viability (PC-3 [JPC-3]; first compound 20 µM): 0.708 | relative viability (Calu-6; first compound 0.2 µM): 0.97 | relative viability (Calu-6; first compound 0.6325 µM): 0.823 | relative viability (Calu-6; first compound 2 µM): 0.845 | relative viability (Calu-6; first compound 6.325 µM): 0.781 | relative viability (Calu-6; first compound 20 µM): 0.305

COCC1(CO)C(=O)C2CCN1CC2 (centres undefined) [PRIMA-1MET] + CS(=O)(=O)N1CCN(Cc2cc3nc(-c4cccc5[nH]ncc45)nc(N4CCOCC4)c3s2)CC1 [Pictilisib] (partner 1 µM)
relative viability (NCI-H1355; first compound 0.2 µM): 0.366 | relative viability (NCI-H1355; first compound 0.6325 µM): 0.35 | relative viability (NCI-H1355; first compound 2 µM): 0.308 | relative viability (NCI-H1355; first compound 6.325 µM): 0.36 | relative viability (NCI-H1355; first compound 20 µM): 0.541 | relative viability (NCI-H1703; first compound 0.2 µM): 0.275 | relative viability (NCI-H1703; first compound 2 µM): 0.255 | relative viability (NCI-H1703; first compound 6.325 µM): 0.293 | relative viability (NCI-H1703; first compound 20 µM): 0.0333 | relative viability (NCI-H520; first compound 0.2 µM): 0.345 | relative viability (NCI-H520; first compound 0.6325 µM): 0.285 | relative viability (NCI-H520; first compound 6.325 µM): 0.368 | relative viability (NCI-H520; first compound 20 µM): 0.13 | relative viability (LC-2-ad; first compound 0.2 µM): 0.933 | relative viability (LC-2-ad; first compound 0.6325 µM): 0.445 | relative viability (LC-2-ad; first compound 2 µM): 0.321 | relative viability (LC-2-ad; first compound 6.325 µM): 0.468 | relative viability (LC-2-ad; first compound 20 µM): 0.421 | relative viability (NCI-H1299; first compound 0.2 µM): 0.956 | relative viability (NCI-H1299; first compound 0.6325 µM): 0.782 | relative viability (NCI-H1299; first compound 2 µM): 0.345 | relative viability (NCI-H1299; first compound 6.325 µM): 0.808 | relative viability (NCI-H1299; first compound 20 µM): 0.0251 | relative viability (EBC-1; first compound 0.2 µM): 0.414 | relative viability (EBC-1; first compound 0.6325 µM): 0.381 | relative viability (EBC-1; first compound 2 µM): 0.402 | relative viability (EBC-1; first compound 6.325 µM): 0.434 | relative viability (EBC-1; first compound 20 µM): 0.12 | relative viability (LCLC-97TM1; first compound 0.2 µM): 0.127 | relative viability (LCLC-97TM1; first compound 2 µM): 0.234 | relative viability (LCLC-97TM1; first compound 6.325 µM): 0.135 | relative viability (LCLC-97TM1; first compound 20 µM): 0.117 | relative viability (NCI-H23; first compound 0.2 µM): 0.361 | relative viability (NCI-H23; first compound 0.6325 µM): 0.403 | relative viability (NCI-H23; first compound 2 µM): 0.323 | relative viability (NCI-H23; first compound 6.325 µM): 0.334 | relative viability (NCI-H23; first compound 20 µM): 0.138 | relative viability (IA-LM; first compound 0.2 µM): 0.476 | relative viability (IA-LM; first compound 0.6325 µM): 0.253 | relative viability (IA-LM; first compound 2 µM): 0.355 | relative viability (IA-LM; first compound 6.325 µM): 0.404 | relative viability (IA-LM; first compound 20 µM): 0.326 | relative viability (NCI-H2347; first compound 0.2 µM): 0.416 | relative viability (NCI-H2347; first compound 0.6325 µM): 0.741 | relative viability (NCI-H2347; first compound 6.325 µM): 0.675 | relative viability (NCI-H2347; first compound 20 µM): 0.561 | relative viability (A549; first compound 0.2 µM): 0.581 | relative viability (A549; first compound 0.6325 µM): 0.403 | relative viability (A549; first compound 2 µM): 0.497 | relative viability (A549; first compound 6.325 µM): 0.543 | relative viability (A549; first compound 20 µM): 0.421 | relative viability (PC-3 [JPC-3]; first compound 0.2 µM): 0.681 | relative viability (PC-3 [JPC-3]; first compound 0.6325 µM): 0.653 | relative viability (PC-3 [JPC-3]; first compound 2 µM): 0.652 | relative viability (PC-3 [JPC-3]; first compound 6.325 µM): 0.777 | relative viability (PC-3 [JPC-3]; first compound 20 µM): 0.688 | relative viability (Calu-6; first compound 0.2 µM): 0.945 | relative viability (Calu-6; first compound 0.6325 µM): 0.873 | relative viability (Calu-6; first compound 2 µM): 1.07 | relative viability (Calu-6; first compound 6.325 µM): 0.917 | relative viability (Calu-6; first compound 20 µM): 0.563
